Test results from the kinase profiling compilation of Christmann-Franck et al. (2016).

Experiments:
Assay in all cases: KINOMEscan competition binding
Conditions in all cases: compound 10.0 µM
[1] = target: CDK5 (human) (UniProt Q00535)
[2] = target: CDK18 (human) (UniProt Q07002)
[3] = target: EGFR (human) (UniProt P00533)
[4] = target: TBK1 (human) (UniProt Q9UHD2)
[5] = target: CSNK2A2 (human) (UniProt P19784)
[6] = target: PIK3CB (human) (UniProt P42338)
[7] = target: PLK4 (human) (UniProt O00444)
[8] = target: MAPK12 (human) (UniProt P53778)
[9] = target: MAP2K2 (human) (UniProt P36507)
[10] = target: TYK2 JH1 catalytic (human) (UniProt P29597)
[11] = target: RIOK3 (human) (UniProt O14730)
RIOK3 (human), sequence (O14730 whole entry, looked up): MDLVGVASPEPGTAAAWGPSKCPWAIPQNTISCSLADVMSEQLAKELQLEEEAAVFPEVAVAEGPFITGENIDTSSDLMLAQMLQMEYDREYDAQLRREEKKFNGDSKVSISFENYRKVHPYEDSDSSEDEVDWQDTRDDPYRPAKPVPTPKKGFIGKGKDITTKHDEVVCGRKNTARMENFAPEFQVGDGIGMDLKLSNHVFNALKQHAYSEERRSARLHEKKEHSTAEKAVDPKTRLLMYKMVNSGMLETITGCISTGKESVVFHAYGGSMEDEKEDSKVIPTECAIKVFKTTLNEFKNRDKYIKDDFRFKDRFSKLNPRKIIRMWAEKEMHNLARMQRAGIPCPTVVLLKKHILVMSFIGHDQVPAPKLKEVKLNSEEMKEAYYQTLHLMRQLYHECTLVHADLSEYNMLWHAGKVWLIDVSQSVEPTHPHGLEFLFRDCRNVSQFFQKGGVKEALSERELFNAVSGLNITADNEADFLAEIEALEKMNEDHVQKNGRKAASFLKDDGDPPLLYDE

[12] = target: MAP4K1 (human) (UniProt Q92918)
[13] = target: CAMK2A (human) (UniProt Q9UQM7)
[14] = target: CAMK1G (human) (UniProt Q96NX5)
[15] = target: SIK2 (human) (UniProt Q9H0K1)
SIK2 (human), sequence (Q9H0K1 whole entry, looked up): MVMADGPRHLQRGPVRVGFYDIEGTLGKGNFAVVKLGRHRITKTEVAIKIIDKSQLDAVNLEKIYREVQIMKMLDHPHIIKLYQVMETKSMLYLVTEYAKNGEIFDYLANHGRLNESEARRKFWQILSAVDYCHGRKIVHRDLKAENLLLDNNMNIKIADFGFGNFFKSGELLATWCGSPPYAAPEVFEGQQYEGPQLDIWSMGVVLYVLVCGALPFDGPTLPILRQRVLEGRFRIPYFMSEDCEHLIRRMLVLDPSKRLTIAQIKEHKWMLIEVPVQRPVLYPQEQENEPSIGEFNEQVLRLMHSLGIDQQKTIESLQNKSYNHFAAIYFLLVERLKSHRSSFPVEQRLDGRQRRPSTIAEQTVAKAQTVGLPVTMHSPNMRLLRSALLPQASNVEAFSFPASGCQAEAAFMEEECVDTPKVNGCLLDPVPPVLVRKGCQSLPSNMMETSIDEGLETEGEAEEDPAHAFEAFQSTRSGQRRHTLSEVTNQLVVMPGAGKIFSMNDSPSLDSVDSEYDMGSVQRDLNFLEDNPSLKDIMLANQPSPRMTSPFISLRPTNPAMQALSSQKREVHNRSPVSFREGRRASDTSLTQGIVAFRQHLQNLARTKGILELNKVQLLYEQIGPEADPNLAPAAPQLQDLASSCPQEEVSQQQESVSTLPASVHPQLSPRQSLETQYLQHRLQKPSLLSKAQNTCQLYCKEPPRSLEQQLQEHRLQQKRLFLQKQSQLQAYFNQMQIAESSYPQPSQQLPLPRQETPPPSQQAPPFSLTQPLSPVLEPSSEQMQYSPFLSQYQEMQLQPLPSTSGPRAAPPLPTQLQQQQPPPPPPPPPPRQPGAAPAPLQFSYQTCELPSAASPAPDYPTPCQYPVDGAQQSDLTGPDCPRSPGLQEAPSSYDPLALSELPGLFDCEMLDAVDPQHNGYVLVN

[16] = target: ADCK4 (human) (UniProt Q96D53)
[17] = target: ALK (human) (UniProt Q9UM73)
[18] = target: MAP4K3 (human) (UniProt Q8IVH8)
[19] = tested on: EGFR (human), P00533 [752-759 del]
[20] = target: ROCK2 (human) (UniProt O75116)
[21] = target: STK33 (human) (UniProt Q9BYT3)
[22] = target: PRKX (human) (UniProt P51817)
[23] = tested on: EGFR (human), P00533 [T790M/L858R]
[24] = target: STK10 (human) (UniProt O94804)
[25] = target: ZAP70 (human) (UniProt P43403)
[26] = target: TYRO3 (human) (UniProt Q06418)
[27] = target: ACVR2A (human) (UniProt P27037)
[28] = target: CDC42BPB (human) (UniProt Q9Y5S2)
CDC42BPB (human), sequence (Q9Y5S2 whole entry, looked up): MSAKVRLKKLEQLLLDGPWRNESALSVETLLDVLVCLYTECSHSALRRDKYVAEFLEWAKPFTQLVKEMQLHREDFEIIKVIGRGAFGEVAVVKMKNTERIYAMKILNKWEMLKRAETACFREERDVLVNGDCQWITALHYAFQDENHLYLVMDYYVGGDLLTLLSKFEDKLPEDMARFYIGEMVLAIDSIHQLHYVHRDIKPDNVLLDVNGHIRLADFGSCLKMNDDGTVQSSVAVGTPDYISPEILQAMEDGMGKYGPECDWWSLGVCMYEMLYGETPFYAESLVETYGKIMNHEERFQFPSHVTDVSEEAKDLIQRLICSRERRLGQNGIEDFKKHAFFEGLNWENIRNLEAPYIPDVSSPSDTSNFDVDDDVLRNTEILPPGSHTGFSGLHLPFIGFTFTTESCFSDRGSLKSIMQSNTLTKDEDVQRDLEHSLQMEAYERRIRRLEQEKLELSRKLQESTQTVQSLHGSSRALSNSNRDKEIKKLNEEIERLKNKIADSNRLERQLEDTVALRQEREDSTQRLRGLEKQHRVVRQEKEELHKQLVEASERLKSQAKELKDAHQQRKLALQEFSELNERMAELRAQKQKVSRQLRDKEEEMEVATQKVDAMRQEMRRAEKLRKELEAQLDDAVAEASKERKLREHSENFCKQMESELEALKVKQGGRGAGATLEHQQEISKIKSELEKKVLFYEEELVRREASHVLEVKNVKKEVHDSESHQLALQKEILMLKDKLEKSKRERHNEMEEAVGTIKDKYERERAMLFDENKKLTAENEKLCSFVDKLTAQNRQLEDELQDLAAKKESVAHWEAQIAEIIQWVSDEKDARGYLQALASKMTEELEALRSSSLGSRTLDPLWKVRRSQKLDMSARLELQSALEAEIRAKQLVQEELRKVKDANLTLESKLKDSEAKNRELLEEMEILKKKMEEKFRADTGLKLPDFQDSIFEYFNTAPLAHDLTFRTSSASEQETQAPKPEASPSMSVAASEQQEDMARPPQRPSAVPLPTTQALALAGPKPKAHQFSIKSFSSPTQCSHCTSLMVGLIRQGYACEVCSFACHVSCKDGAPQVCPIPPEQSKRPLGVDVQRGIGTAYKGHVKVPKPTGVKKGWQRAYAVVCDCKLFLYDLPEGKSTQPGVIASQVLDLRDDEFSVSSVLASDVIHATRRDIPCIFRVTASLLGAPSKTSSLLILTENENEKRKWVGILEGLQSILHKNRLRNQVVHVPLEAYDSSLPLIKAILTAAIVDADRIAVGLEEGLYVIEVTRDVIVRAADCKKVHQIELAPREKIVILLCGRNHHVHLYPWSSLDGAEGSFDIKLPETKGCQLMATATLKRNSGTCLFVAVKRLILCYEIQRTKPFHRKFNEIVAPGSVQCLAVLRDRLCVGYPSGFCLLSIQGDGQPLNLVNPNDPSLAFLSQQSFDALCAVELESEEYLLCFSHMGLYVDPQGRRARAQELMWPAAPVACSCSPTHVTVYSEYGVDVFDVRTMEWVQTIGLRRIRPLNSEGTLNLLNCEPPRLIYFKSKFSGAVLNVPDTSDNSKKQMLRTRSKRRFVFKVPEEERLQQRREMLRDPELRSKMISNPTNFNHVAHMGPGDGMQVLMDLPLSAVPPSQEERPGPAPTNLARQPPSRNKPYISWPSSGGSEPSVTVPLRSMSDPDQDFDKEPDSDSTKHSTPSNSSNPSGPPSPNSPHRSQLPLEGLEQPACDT

[29] = target: BLK (human) (UniProt P51451)
[30] = target: JAK1 JH1 catalytic (human) (UniProt P23458)
JAK1 JH1 catalytic (human), sequence (P23458 whole entry, looked up): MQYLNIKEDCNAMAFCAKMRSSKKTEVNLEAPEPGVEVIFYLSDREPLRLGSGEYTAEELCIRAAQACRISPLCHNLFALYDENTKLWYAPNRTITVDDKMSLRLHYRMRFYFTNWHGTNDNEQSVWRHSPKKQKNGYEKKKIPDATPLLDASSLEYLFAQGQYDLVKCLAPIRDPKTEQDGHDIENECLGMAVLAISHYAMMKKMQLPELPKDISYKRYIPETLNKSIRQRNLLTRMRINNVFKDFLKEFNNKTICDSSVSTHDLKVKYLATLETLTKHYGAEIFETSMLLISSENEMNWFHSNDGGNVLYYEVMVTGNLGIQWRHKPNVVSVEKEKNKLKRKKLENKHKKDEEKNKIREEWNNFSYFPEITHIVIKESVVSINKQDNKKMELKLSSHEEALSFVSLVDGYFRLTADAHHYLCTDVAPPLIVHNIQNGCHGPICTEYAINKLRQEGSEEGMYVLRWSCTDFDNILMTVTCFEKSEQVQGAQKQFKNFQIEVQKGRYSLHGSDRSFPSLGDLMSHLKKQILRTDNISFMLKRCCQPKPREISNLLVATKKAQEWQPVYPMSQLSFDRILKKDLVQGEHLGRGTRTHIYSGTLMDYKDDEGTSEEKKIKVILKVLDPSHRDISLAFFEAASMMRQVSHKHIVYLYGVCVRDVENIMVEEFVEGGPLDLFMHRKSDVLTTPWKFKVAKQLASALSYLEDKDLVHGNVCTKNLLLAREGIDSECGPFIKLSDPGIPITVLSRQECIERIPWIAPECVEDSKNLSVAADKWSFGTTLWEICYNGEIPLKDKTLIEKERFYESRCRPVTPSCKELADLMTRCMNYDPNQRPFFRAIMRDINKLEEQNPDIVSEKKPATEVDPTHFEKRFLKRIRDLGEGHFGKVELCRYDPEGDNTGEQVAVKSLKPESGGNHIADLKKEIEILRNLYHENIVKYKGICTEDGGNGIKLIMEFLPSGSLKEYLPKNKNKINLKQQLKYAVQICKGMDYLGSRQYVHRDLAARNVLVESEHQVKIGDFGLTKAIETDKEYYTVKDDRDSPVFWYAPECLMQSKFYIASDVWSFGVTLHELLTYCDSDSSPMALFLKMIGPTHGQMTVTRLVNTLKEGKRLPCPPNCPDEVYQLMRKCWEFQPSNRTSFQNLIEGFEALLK

[31] = target: AURKB (human) (UniProt Q96GD4)
[32] = target: EIF2AK2 (human) (UniProt P19525)
[33] = target: CHEK1 (human) (UniProt O14757)
[34] = target: DCLK1 (human) (UniProt O15075)
[35] = target: MAPK15 (human) (UniProt Q8TD08)
MAPK15 (human), sequence (Q8TD08 whole entry, looked up): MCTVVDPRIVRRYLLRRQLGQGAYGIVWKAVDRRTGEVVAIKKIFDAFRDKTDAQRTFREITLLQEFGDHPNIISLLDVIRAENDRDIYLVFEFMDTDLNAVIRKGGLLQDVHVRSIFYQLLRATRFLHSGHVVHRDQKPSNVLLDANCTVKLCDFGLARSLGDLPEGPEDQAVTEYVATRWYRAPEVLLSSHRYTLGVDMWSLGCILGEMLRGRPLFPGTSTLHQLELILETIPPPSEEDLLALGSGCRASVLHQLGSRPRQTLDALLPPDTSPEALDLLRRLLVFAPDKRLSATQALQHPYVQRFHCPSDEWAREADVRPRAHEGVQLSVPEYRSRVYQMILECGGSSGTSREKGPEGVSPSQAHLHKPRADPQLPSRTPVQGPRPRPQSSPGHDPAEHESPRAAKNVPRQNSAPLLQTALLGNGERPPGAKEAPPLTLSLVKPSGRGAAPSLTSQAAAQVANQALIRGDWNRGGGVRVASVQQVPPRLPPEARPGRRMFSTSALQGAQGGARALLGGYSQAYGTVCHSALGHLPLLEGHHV

[36] = target: PTK2 (human) (UniProt Q05397)
[37] = target: TXK (human) (UniProt P42681)

Q: Which kinase still bound, per cent of control [1] does the source give for COc1cc(N2CCN(C)CC2)ccc1Nc1ncc2c(n1)N(C)c1ccccc1C(=O)N2C here?
A: 100%

Q: What about the kinase still bound, per cent of control [2] of the same compound?
A: 100%

Q: What about the kinase still bound, per cent of control [3] of the same compound?
A: 100%

Q: What about the kinase still bound, per cent of control [4] of the same compound?
A: 100%

Q: What about the kinase still bound, per cent of control [5] of the same compound?
A: 100%

Q: And the kinase still bound, per cent of control [6]?
A: 100%

Q: What about the kinase still bound, per cent of control [7] of the same compound?
A: 6.8%

Q: What about the kinase still bound, per cent of control [8] of the same compound?
A: 100%

Q: What about the kinase still bound, per cent of control [9] of the same compound?
A: 100%

Q: What about the kinase still bound, per cent of control [10] of the same compound?
A: 100%

Q: And the kinase still bound, per cent of control [11]?
A: 100%

Q: What about the kinase still bound, per cent of control [12] of the same compound?
A: 100%

Q: What about the kinase still bound, per cent of control [13] of the same compound?
A: 32%

Q: What about the kinase still bound, per cent of control [14] of the same compound?
A: 100%

Q: What about the kinase still bound, per cent of control [15] of the same compound?
A: 100%

Q: And the kinase still bound, per cent of control [16]?
A: 100%

Q: And the kinase still bound, per cent of control [17]?
A: 16%

Q: What about the kinase still bound, per cent of control [18] of the same compound?
A: 100%

Q: And the kinase still bound, per cent of control [19]?
A: 100%

Q: What about the kinase still bound, per cent of control [20] of the same compound?
A: 100%

Q: What about the kinase still bound, per cent of control [21] of the same compound?
A: 8.8%

Q: What about the kinase still bound, per cent of control [22] of the same compound?
A: 100%

Q: And the kinase still bound, per cent of control [23]?
A: 100%

Q: And the kinase still bound, per cent of control [24]?
A: 100%

Q: And the kinase still bound, per cent of control [25]?
A: 100%

Q: And the kinase still bound, per cent of control [26]?
A: 100%

Q: And the kinase still bound, per cent of control [27]?
A: 100%

Q: What about the kinase still bound, per cent of control [28] of the same compound?
A: 100%

Q: And the kinase still bound, per cent of control [29]?
A: 100%

Q: What about the kinase still bound, per cent of control [30] of the same compound?
A: 100%

Q: And the kinase still bound, per cent of control [31]?
A: 100%

Q: And the kinase still bound, per cent of control [32]?
A: 100%

Q: And the kinase still bound, per cent of control [33]?
A: 100%

Q: And the kinase still bound, per cent of control [34]?
A: 0.65%

Q: What about the kinase still bound, per cent of control [35] of the same compound?
A: 100%

Q: What about the kinase still bound, per cent of control [36] of the same compound?
A: 16%

Q: What about the kinase still bound, per cent of control [37] of the same compound?
A: 100%

Q: What does the source list for C=CC(=O)Nc1ccc(CN(C(=O)Nc2c(Cl)c(OC)cc(OC)c2Cl)c2cc(Nc3ccc(N4CCN(C)CC4)cc3)ncn2)cc1?
A: kinase still bound, per cent of control [1]: 100%; kinase still bound, per cent of control [2]: 100%; kinase still bound, per cent of control [3]: 0.35%; kinase still bound, per cent of control [5]: 100%; kinase still bound, per cent of control [6]: 100%; kinase still bound, per cent of control [7]: 100%; kinase still bound, per cent of control [8]: 100%; kinase still bound, per cent of control [9]: 100%; kinase still bound, per cent of control [10]: 12%; kinase still bound, per cent of control [11]: 100%; kinase still bound, per cent of control [12]: 16%; kinase still bound, per cent of control [13]: 100%; kinase still bound, per cent of control [14]: 100%; kinase still bound, per cent of control [15]: 100%; kinase still bound, per cent of control [16]: 100%; kinase still bound, per cent of control [17]: 100%; kinase still bound, per cent of control [18]: 7.4%; kinase still bound, per cent of control [19]: 2.3%; kinase still bound, per cent of control [20]: 100%; kinase still bound, per cent of control [21]: 31%; kinase still bound, per cent of control [22]: 100%; kinase still bound, per cent of control [24]: 0.1%; kinase still bound, per cent of control [25]: 100%; kinase still bound, per cent of control [26]: 100%; kinase still bound, per cent of control [27]: 100%; kinase still bound, per cent of control [28]: 100%; kinase still bound, per cent of control [29]: 0.1%; kinase still bound, per cent of control [30]: 100%; kinase still bound, per cent of control [31]: 100%; kinase still bound, per cent of control [32]: 100%; kinase still bound, per cent of control [33]: 100%; kinase still bound, per cent of control [34]: 100%; kinase still bound, per cent of control [35]: 100%; kinase still bound, per cent of control [36]: 100%; kinase still bound, per cent of control [37]: 16%

Q: Which results are given for CS(=O)(=O)N1CCN(Cc2cc3nc(-c4cccc5[nH]ncc45)nc(N4CCOCC4)c3s2)CC1?
A: kinase still bound, per cent of control [1]: 100%; kinase still bound, per cent of control [2]: 100%; kinase still bound, per cent of control [3]: 100%; kinase still bound, per cent of control [4]: 100%; kinase still bound, per cent of control [5]: 100%; kinase still bound, per cent of control [6]: 0.1%; kinase still bound, per cent of control [7]: 100%; kinase still bound, per cent of control [8]: 100%; kinase still bound, per cent of control [9]: 100%; kinase still bound, per cent of control [10]: 100%; kinase still bound, per cent of control [11]: 100%; kinase still bound, per cent of control [12]: 100%; kinase still bound, per cent of control [13]: 100%; kinase still bound, per cent of control [15]: 100%; kinase still bound, per cent of control [16]: 100%; kinase still bound, per cent of control [17]: 100%; kinase still bound, per cent of control [18]: 100%; kinase still bound, per cent of control [19]: 100%; kinase still bound, per cent of control [20]: 100%; kinase still bound, per cent of control [21]: 100%; kinase still bound, per cent of control [22]: 100%; kinase still bound, per cent of control [23]: 100%; kinase still bound, per cent of control [24]: 100%; kinase still bound, per cent of control [25]: 100%; kinase still bound, per cent of control [26]: 100%; kinase still bound, per cent of control [27]: 100%; kinase still bound, per cent of control [28]: 100%; kinase still bound, per cent of control [29]: 100%; kinase still bound, per cent of control [30]: 100%; kinase still bound, per cent of control [31]: 100%; kinase still bound, per cent of control [32]: 100%; kinase still bound, per cent of control [33]: 100%; kinase still bound, per cent of control [34]: 100%; kinase still bound, per cent of control [35]: 100%; kinase still bound, per cent of control [36]: 100%; kinase still bound, per cent of control [37]: 100%
